Results reported in patent US11974552B2, “Transgenic C57BL6-BTBR mouse with a humanized MHC II gene that expresses GAD65” (The University of Toledo, priority 2018, dated 2024).

Tested on: pancreatic lymph nodes (PLN) CD4 and CD8 T cells of humanized T1D mice
Assay: In-vitro CFSE proliferation assay of pancreatic lymph node T cells stimulated with rGAD65
Format: cell-based
Conditions: pulse stimulation 4 ug/ml for 4 days; PLN single cell suspension of diabetic mouse; CFSE tracking
Protocol: FIG. 6C: rGAD65 induced proliferation of CD4 and CD8 cells, pancreatic lymph nodes (PLN) were isolated from humanized T1D mice and were stimulated with GAD65 (4 μg/ml) for 4 days (n=4). The proliferation of cells were tracked using CFSE and analyzed by FLOWJO V10 Beta software using fix ratio, fix CV and fix background from the un-stimulated cells.
The diabetogenic T cells are auto-antigen specific in nature. The pancreatic lymph nodes (PLN) of a diabetic mouse were isolated and the single cell suspension was stimulated with recombinant human GAD65 protein (4 ug/ml). In-vitro proliferation assay using carboxyfluorescein succinimidyl ester (CFSE) to track the T cell proliferation was performed. Pulse stimulation with human rGAD65 (4 ug/ml) for 4 days increased the CD4 and CD8 proliferation by 9-10 folds (FIG. 6C).

human rGAD65: recombinant human Glutamic Acid Decarboxylase 65 protein used as autoantigen stimulus
increase of CD4 and CD8 proliferation: 9-10 folds
